The record followed here is ChEMBL document CHEMBL2021846, “Symplocin A, a linear peptide from the Bahamian cyanobacterium Symploca sp. Configurational analysis of N,N-dimethylamino acids by chiral-phase HPLC of naphthacyl esters” (J Nat Prod, 2012).

SMILES strings stand for the structures. Active and inactive are the calls of the source. The calls are words filed in the database; no cut-off is given here.

In experiment [1] the test system is HCT-116. The experiment can be described thus: Cytotoxicity against human HCT116 cells. It counts as functional, cell-based.
The target in experiment [2] is T1, Cathepsin E (Homo sapiens, UniProt P14091).
T1 sequence (P14091 whole entry): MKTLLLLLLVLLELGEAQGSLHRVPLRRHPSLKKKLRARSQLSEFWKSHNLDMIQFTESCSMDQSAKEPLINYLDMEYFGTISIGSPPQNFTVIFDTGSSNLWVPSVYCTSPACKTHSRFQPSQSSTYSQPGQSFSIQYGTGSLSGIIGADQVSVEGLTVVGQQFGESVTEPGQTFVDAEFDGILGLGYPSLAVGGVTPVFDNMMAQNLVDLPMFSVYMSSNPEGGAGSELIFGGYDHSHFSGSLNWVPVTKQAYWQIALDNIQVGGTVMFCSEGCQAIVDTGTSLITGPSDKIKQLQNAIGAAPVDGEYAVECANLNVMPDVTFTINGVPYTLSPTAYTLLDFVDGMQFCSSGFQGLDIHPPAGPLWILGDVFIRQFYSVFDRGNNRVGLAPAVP
The experiment in a line: Inhibition of cathepsin E.

The term IC50 denotes the midpoint of a concentration-inhibition curve. High values mean lower potency, low ones higher potency. Take `CC[C@@H](C)[C@H](C(=O)O[C@@H](C(=O)N[C@@H](Cc1ccc(O)cc1)C(=O)N[C@@H](CO)C(=O)N[C@@H](CC(C)C)[C@H](O)CC(=O)N[C@H](C(=O)NCC(=O)N(C)[C@H](Cc1ccccc1)C(=O)N1CCC[C@H]1C(=O)OC)C(C)C)C(C)C)N(C)C` [SYMPLOCIN A]: in experiment [1], the result was inactive. In experiment [2], this molecule gave an IC50 of 0.3 nM.
